Test results reported in ChEMBL document CHEMBL1201862, “PubChem BioAssay data set” (2004).
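Protocol summary: plate cells (96-well), add compound at 5 concentrations, incubate 48 h, interpolate endpoints linearly. GI50: concentration for 50% inhibition of growth.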 Activity calls are given as the source filed them. Cut-off read from the data, not from the text of the source: active = GI50 up to about 1.1 µM and inactive = higher.

Tests used:
Assay in all cases: NCI anticancer screen, dose series, 48 h
786-0 = tested on: 786-0
A498 = tested on: A498
A549 = tested on: A549
ACHN = tested on: ACHN
BT-549 = tested on: BT-549
CAKI-1 = tested on: CAKI-1
CCRF-CEM = tested on: CCRF-CEM
COLO 205 = tested on: COLO 205
DU-145 = tested on: DU-145
EKVX = tested on: EKVX
HCC 2998 = tested on: HCC 2998
HCT-116 = tested on: HCT-116
HCT-15 = tested on: HCT-15
HL-60 = tested on: HL-60
HOP-92 = tested on: HOP-92
HT-29 = tested on: HT-29
Hs-578T = tested on: Hs-578T
IGROV-1 = tested on: IGROV-1
K562 = tested on: K562
KM12 = tested on: KM12
LOX IMVI = tested on: LOX IMVI
M14 = tested on: M14
MCF7 = tested on: MCF7
MDA-MB-231 = tested on: MDA-MB-231
MDA-MB-435 = tested on: MDA-MB-435
MDA-N = tested on: MDA-N
MOLT-4 = tested on: MOLT-4
Malme-3M = tested on: Malme-3M
NCI-H226 = tested on: NCI-H226
NCI-H23 = tested on: NCI-H23
NCI-H460 = tested on: NCI-H460
NCI/ADR-RES = tested on: NCI/ADR-RES
OVCAR-4 = tested on: OVCAR-4
OVCAR-5 = tested on: OVCAR-5
OVCAR-8 = tested on: OVCAR-8
PC-3 = tested on: PC-3
RPMI-8226 = tested on: RPMI-8226
RXF 393 = tested on: RXF 393
SF-268 = tested on: SF-268
SF-295 = tested on: SF-295
SF-539 = tested on: SF-539
SK-MEL-28 = tested on: SK-MEL-28
SK-MEL-5 = tested on: SK-MEL-5
SN12C = tested on: SN12C
SNB-19 = tested on: SNB-19
SNB-75 = tested on: SNB-75
SR = tested on: SR
SW-620 = tested on: SW-620
TK-10 = tested on: TK-10
U-251 = tested on: U-251
UACC-257 = tested on: UACC-257
UO-31 = tested on: UO-31

In the case of `CN1CC[C@]2(c3cccc(O)c3)CC(=O)/C(=C/c3ccc(Cl)c(Cl)c3)[C@@H]1C2`, the GI50 (786-0) was 1.05 µM (active), the GI50 (A498) was 1.63 µM (inactive) and the GI50 (A549) was 1.6 µM (inactive). The GI50 (ACHN) was 1.15 µM (inactive), the GI50 (BT-549) was 1.75 µM (inactive) and the GI50 (CAKI-1) was 1.08 µM (active). The GI50 (CCRF-CEM) was 0.337 µM (active), the GI50 (COLO 205) was 1.6 µM (inactive) and the GI50 (DU-145) was 1.65 µM (inactive). For the same compound, the GI50 (EKVX) was 1.55 µM (inactive), the GI50 (HCC 2998) was 1.41 µM (inactive) and the GI50 (HCT-116) was 1.13 µM (inactive). For the same compound, the GI50 (HCT-15) was 1.16 µM, the GI50 (HL-60) was 0.199 µM (active) and the GI50 (HOP-92) was 1.22 µM (inactive). For the same compound, the GI50 (HT-29) was 1.01 µM (active), the GI50 (Hs-578T) was 3.05 µM (inactive) and the GI50 (IGROV-1) was 1.88 µM (inactive). The GI50 (K562) was 0.296 µM (active), the GI50 (KM12) was 0.575 µM (active) and the GI50 (LOX IMVI) was 0.175 µM (active). The GI50 (M14) was 1.15 µM (inactive), the GI50 (MCF7) was 1.29 µM (inactive) and the GI50 (MDA-MB-231) was 1.15 µM (inactive). The GI50 (MDA-MB-435) was 0.337 µM (active), the GI50 (MDA-N) was 0.552 µM (active) and the GI50 (MOLT-4) was 0.273 µM (active). The GI50 (Malme-3M) was 1.45 µM (inactive), the GI50 (NCI-H226) was 2.34 µM (inactive) and the GI50 (NCI-H23) was 1.53 µM (inactive). For the same compound, the GI50 (NCI-H460) was 1.28 µM (inactive), the GI50 (NCI/ADR-RES) was 1.54 µM (inactive) and the GI50 (OVCAR-4) was 1.47 µM (inactive). For the same compound, the GI50 (OVCAR-5) was 1.77 µM (inactive), the GI50 (OVCAR-8) was 1.49 µM (inactive) and the GI50 (PC-3) was 0.324 µM (active). The GI50 (RPMI-8226) was 0.262 µM (active), the GI50 (RXF 393) was 0.427 µM (active) and the GI50 (SF-268) was 1.71 µM (inactive). The GI50 (SF-295) was 1.52 µM (inactive), the GI50 (SF-539) was 2.5 µM (inactive) and the GI50 (SK-MEL-28) was 1.55 µM (inactive). For the same compound, the GI50 (SK-MEL-5) was 1.55 µM (inactive), the GI50 (SN12C) was 1.04 µM (active) and the GI50 (SNB-19) was 1.75 µM (inactive). For the same compound, the GI50 (SNB-75) was 0.455 µM (active), the GI50 (SR) was 0.281 µM (active) and the GI50 (SW-620) was 1.14 µM (inactive). The GI50 (TK-10) was 1.86 µM (inactive), the GI50 (U-251) was 0.975 µM (active) and the GI50 (UACC-257) was 1.49 µM (inactive). For the same compound, the GI50 (UO-31) was 1.32 µM (inactive).
